Results as given in the supplement of paper PMC10307832.

Tests used:
Assay in all cases: relative viability (nuclei count vs DMSO), 5 days (fraction); higher = more cells survive
NCI-H1437 = test system: NCI-H1437
Procedure, shortened: (§1)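 Relative viability was taken as the ratio of nuclei in treated wells to nuclei in vehicle wells. Lung cancer cell lines in 1536-well plates received compounds by pin tool one day after seeding, either one drug alone or a fixed anchor-drug dose plus five library-drug doses (not always all listed) in √10 steps. Nuclei were counted on 4× images after 5 days of treatment, and values are medians of duplicate plates.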

NCI-H1648 = test system: NCI-H1648
Procedure, shortened: as §1

NCI-H1703 = test system: NCI-H1703
Procedure, shortened: as §1

A549 = test system: A549
Procedure, shortened: as §1

IA-LM = test system: IA-LM
Procedure, shortened: as §1

C[C@@H]1CN(CC(=O)Nc2ccc3c(c2)Cc2cccc(-c4cc(=O)cc(N5CCOCC5)o4)c2S3)C[C@H](C)O1 + CC(=O)Nc1cccc(-n2c(=O)n(C3CC3)c(=O)c3c(Nc4ccc(I)cc4F)n(C)c(=O)c(C)c32)c1 [Trametinib] (partner 0.02 µM)
relative viability (NCI-H1437; first compound 0.04 µM): 0.47 | relative viability (NCI-H1437; first compound 0.1265 µM): 0.467 | relative viability (NCI-H1437; first compound 0.4 µM): 0.506 | relative viability (NCI-H1437; first compound 4 µM): 0.369 | relative viability (NCI-H1648; first compound 0.04 µM): 0.484 | relative viability (NCI-H1648; first compound 0.1265 µM): 0.435 | relative viability (NCI-H1648; first compound 0.4 µM): 0.474 | relative viability (NCI-H1648; first compound 4 µM): 0.527

C[C@@H]1CN(CC(=O)Nc2ccc3c(c2)Cc2cccc(-c4cc(=O)cc(N5CCOCC5)o4)c2S3)C[C@H](C)O1 + CC(=O)c1c(C)c2cnc(Nc3ccc(N4CCNCC4)cn3)nc2n(C2CCCC2)c1=O [Palbociclib] (partner 0.5 µM)
relative viability (NCI-H1437; first compound 0.04 µM): 0.309 | relative viability (NCI-H1437; first compound 0.1265 µM): 0.282 | relative viability (NCI-H1437; first compound 0.4 µM): 0.327 | relative viability (NCI-H1437; first compound 4 µM): 0.255 | relative viability (NCI-H1648; first compound 0.04 µM): 0.265 | relative viability (NCI-H1648; first compound 0.1265 µM): 0.322 | relative viability (NCI-H1648; first compound 0.4 µM): 0.373 | relative viability (NCI-H1648; first compound 4 µM): 0.26

C[C@@H]1CN(CC(=O)Nc2ccc3c(c2)Cc2cccc(-c4cc(=O)cc(N5CCOCC5)o4)c2S3)C[C@H](C)O1 + NC(=O)Nc1cc(-c2cccc(F)c2)sc1C(=O)N[C@H]1CCCNC1 [AZD7762] (partner 0.2 µM)
relative viability (NCI-H1703; first compound 0.04 µM): 0.137 | relative viability (NCI-H1703; first compound 0.1265 µM): 0.11 | relative viability (NCI-H1703; first compound 0.4 µM): 0.141 | relative viability (NCI-H1703; first compound 4 µM): 0.117 | relative viability (NCI-H1437; first compound 0.04 µM): 1.08 | relative viability (NCI-H1437; first compound 0.1265 µM): 1.09 | relative viability (NCI-H1437; first compound 0.4 µM): 1.12 | relative viability (NCI-H1437; first compound 4 µM): 0.95 | relative viability (NCI-H1648; first compound 0.04 µM): 0.519 | relative viability (NCI-H1648; first compound 0.1265 µM): 0.574 | relative viability (NCI-H1648; first compound 0.4 µM): 0.961 | relative viability (NCI-H1648; first compound 4 µM): 0.604

C[C@@H]1CN(CC(=O)Nc2ccc3c(c2)Cc2cccc(-c4cc(=O)cc(N5CCOCC5)o4)c2S3)C[C@H](C)O1 + Nc1nc2[nH]cc(CCc3ccc(C(=O)N[C@@H](CCC(=O)O)C(=O)O)cc3)c2c(=O)[nH]1 [Pemetrexed] (partner 0.2 µM)
relative viability (NCI-H1437; first compound 0.04 µM): 0.402 | relative viability (NCI-H1437; first compound 0.1265 µM): 0.338 | relative viability (NCI-H1437; first compound 0.4 µM): 0.336 | relative viability (NCI-H1437; first compound 4 µM): 0.335 | relative viability (NCI-H1648; first compound 0.04 µM): 0.588 | relative viability (NCI-H1648; first compound 0.1265 µM): 0.801 | relative viability (NCI-H1648; first compound 0.4 µM): 0.747 | relative viability (NCI-H1648; first compound 4 µM): 0.64

C[C@@H]1CN(CC(=O)Nc2ccc3c(c2)Cc2cccc(-c4cc(=O)cc(N5CCOCC5)o4)c2S3)C[C@H](C)O1 + Nc1ncn([C@H]2C[C@H](O)[C@@H](CO)O2)c(=O)n1 [Decitabine] (partner 2 µM)
relative viability (NCI-H1437; first compound 0.04 µM): 0.648 | relative viability (NCI-H1437; first compound 0.1265 µM): 0.591 | relative viability (NCI-H1437; first compound 0.4 µM): 0.625 | relative viability (NCI-H1437; first compound 4 µM): 0.608 | relative viability (A549; first compound 0.04 µM): 0.24 | relative viability (A549; first compound 0.1265 µM): 0.227 | relative viability (A549; first compound 0.4 µM): 0.254 | relative viability (A549; first compound 4 µM): 0.31 | relative viability (NCI-H1648; first compound 0.04 µM): 0.41 | relative viability (NCI-H1648; first compound 0.1265 µM): 0.515 | relative viability (NCI-H1648; first compound 0.4 µM): 0.591 | relative viability (NCI-H1648; first compound 4 µM): 0.434

C[C@@H]1CN(CC(=O)Nc2ccc3c(c2)Cc2cccc(-c4cc(=O)cc(N5CCOCC5)o4)c2S3)C[C@H](C)O1 + O=C(CCCCCCC(=O)Nc1ccccc1)NO [Vorinostat] (partner 1 µM)
relative viability (NCI-H1437; first compound 0.04 µM): 0.837 | relative viability (NCI-H1437; first compound 0.1265 µM): 0.768 | relative viability (NCI-H1437; first compound 0.4 µM): 0.819 | relative viability (NCI-H1437; first compound 4 µM): 0.609 | relative viability (NCI-H1648; first compound 0.04 µM): 0.505 | relative viability (NCI-H1648; first compound 0.1265 µM): 0.605 | relative viability (NCI-H1648; first compound 0.4 µM): 0.644 | relative viability (NCI-H1648; first compound 4 µM): 0.528 | relative viability (IA-LM; first compound 0.04 µM): 0.819 | relative viability (IA-LM; first compound 0.1265 µM): 0.933 | relative viability (IA-LM; first compound 0.4 µM): 1.09 | relative viability (IA-LM; first compound 4 µM): 0.897

CC(C)Oc1cc(Nc2nc(N[C@@H](C)c3ccc(F)cn3)ncc2Cl)n[nH]1 [AZ23] + CC(=O)Nc1cccc(-n2c(=O)n(C3CC3)c(=O)c3c(Nc4ccc(I)cc4F)n(C)c(=O)c(C)c32)c1 [Trametinib] (partner 0.02 µM)
relative viability (NCI-H1437; first compound 0.01 µM): 0.503 | relative viability (NCI-H1437; first compound 0.03162 µM): 0.512 | relative viability (NCI-H1437; first compound 0.3162 µM): 0.651 | relative viability (NCI-H1648; first compound 0.01 µM): 0.374 | relative viability (NCI-H1648; first compound 0.03162 µM): 0.427 | relative viability (NCI-H1648; first compound 0.3162 µM): 0.314

CC(C)Oc1cc(Nc2nc(N[C@@H](C)c3ccc(F)cn3)ncc2Cl)n[nH]1 [AZ23] + CC(=O)c1c(C)c2cnc(Nc3ccc(N4CCNCC4)cn3)nc2n(C2CCCC2)c1=O [Palbociclib] (partner 0.5 µM)
relative viability (NCI-H1437; first compound 0.01 µM): 0.304 | relative viability (NCI-H1437; first compound 0.03162 µM): 0.324 | relative viability (NCI-H1437; first compound 0.3162 µM): 0.335 | relative viability (NCI-H1648; first compound 0.01 µM): 0.227 | relative viability (NCI-H1648; first compound 0.03162 µM): 0.208 | relative viability (NCI-H1648; first compound 0.3162 µM): 0.23

CC(C)Oc1cc(Nc2nc(N[C@@H](C)c3ccc(F)cn3)ncc2Cl)n[nH]1 [AZ23] + NC(=O)Nc1cc(-c2cccc(F)c2)sc1C(=O)N[C@H]1CCCNC1 [AZD7762] (partner 0.2 µM)
relative viability (NCI-H1703; first compound 0.03162 µM): 0.126 | relative viability (NCI-H1703; first compound 0.3162 µM): 0.154 | relative viability (NCI-H1437; first compound 0.01 µM): 1.17 | relative viability (NCI-H1437; first compound 0.03162 µM): 1.18 | relative viability (NCI-H1437; first compound 0.3162 µM): 1.19 | relative viability (NCI-H1648; first compound 0.01 µM): 0.659 | relative viability (NCI-H1648; first compound 0.03162 µM): 0.518 | relative viability (NCI-H1648; first compound 0.3162 µM): 0.762

CC(C)Oc1cc(Nc2nc(N[C@@H](C)c3ccc(F)cn3)ncc2Cl)n[nH]1 [AZ23] + Nc1nc2[nH]cc(CCc3ccc(C(=O)N[C@@H](CCC(=O)O)C(=O)O)cc3)c2c(=O)[nH]1 [Pemetrexed] (partner 0.2 µM)
relative viability (NCI-H1437; first compound 0.01 µM): 0.283 | relative viability (NCI-H1437; first compound 0.03162 µM): 0.345 | relative viability (NCI-H1437; first compound 0.3162 µM): 0.331 | relative viability (NCI-H1648; first compound 0.01 µM): 0.706 | relative viability (NCI-H1648; first compound 0.03162 µM): 0.632 | relative viability (NCI-H1648; first compound 0.3162 µM): 0.807

CC(C)Oc1cc(Nc2nc(N[C@@H](C)c3ccc(F)cn3)ncc2Cl)n[nH]1 [AZ23] + Nc1ncn([C@H]2C[C@H](O)[C@@H](CO)O2)c(=O)n1 [Decitabine] (partner 2 µM)
relative viability (NCI-H1437; first compound 0.01 µM): 0.57 | relative viability (NCI-H1437; first compound 0.03162 µM): 0.552 | relative viability (NCI-H1437; first compound 0.3162 µM): 0.56 | relative viability (A549; first compound 0.01 µM): 0.3 | relative viability (A549; first compound 0.03162 µM): 0.325 | relative viability (A549; first compound 0.3162 µM): 0.281 | relative viability (NCI-H1648; first compound 0.01 µM): 0.546 | relative viability (NCI-H1648; first compound 0.03162 µM): 0.534 | relative viability (NCI-H1648; first compound 0.3162 µM): 0.509

CC(C)Oc1cc(Nc2nc(N[C@@H](C)c3ccc(F)cn3)ncc2Cl)n[nH]1 [AZ23] + O=C(CCCCCCC(=O)Nc1ccccc1)NO [Vorinostat] (partner 1 µM)
relative viability (NCI-H1437; first compound 0.01 µM): 0.981 | relative viability (NCI-H1437; first compound 0.03162 µM): 0.929 | relative viability (NCI-H1437; first compound 0.3162 µM): 0.809 | relative viability (NCI-H1648; first compound 0.01 µM): 0.373 | relative viability (NCI-H1648; first compound 0.03162 µM): 0.567 | relative viability (NCI-H1648; first compound 0.3162 µM): 0.316 | relative viability (IA-LM; first compound 0.01 µM): 0.895 | relative viability (IA-LM; first compound 0.03162 µM): 1.05 | relative viability (IA-LM; first compound 0.3162 µM): 1.06

COc1cc(N2CCC(C(N)=O)CC2)ccc1Nc1nc(N)c(Cl)c(Nc2ccccc2S(=O)(=O)C(C)C)n1 [HG-5-88-01] + CC(=O)Nc1cccc(-n2c(=O)n(C3CC3)c(=O)c3c(Nc4ccc(I)cc4F)n(C)c(=O)c(C)c32)c1 [Trametinib] (partner 0.02 µM)
relative viability (NCI-H1437; first compound 0.04 µM): 0.581 | relative viability (NCI-H1437; first compound 0.1265 µM): 0.56 | relative viability (NCI-H1437; first compound 0.4 µM): 0.447 | relative viability (NCI-H1437; first compound 1.265 µM): 0.475 | relative viability (NCI-H1437; first compound 4 µM): 0.333 | relative viability (NCI-H1648; first compound 0.04 µM): 0.485 | relative viability (NCI-H1648; first compound 0.1265 µM): 0.459 | relative viability (NCI-H1648; first compound 0.4 µM): 0.417 | relative viability (NCI-H1648; first compound 1.265 µM): 0.352 | relative viability (NCI-H1648; first compound 4 µM): 0.316

COc1cc(N2CCC(C(N)=O)CC2)ccc1Nc1nc(N)c(Cl)c(Nc2ccccc2S(=O)(=O)C(C)C)n1 [HG-5-88-01] + CC(=O)c1c(C)c2cnc(Nc3ccc(N4CCNCC4)cn3)nc2n(C2CCCC2)c1=O [Palbociclib] (partner 0.5 µM)
relative viability (NCI-H1437; first compound 0.04 µM): 0.372 | relative viability (NCI-H1437; first compound 0.1265 µM): 0.299 | relative viability (NCI-H1437; first compound 0.4 µM): 0.271 | relative viability (NCI-H1437; first compound 1.265 µM): 0.28 | relative viability (NCI-H1437; first compound 4 µM): 0.243 | relative viability (NCI-H1648; first compound 0.04 µM): 0.291 | relative viability (NCI-H1648; first compound 0.1265 µM): 0.27 | relative viability (NCI-H1648; first compound 0.4 µM): 0.321 | relative viability (NCI-H1648; first compound 1.265 µM): 0.206 | relative viability (NCI-H1648; first compound 4 µM): 0.244
